The source of these data is PubChem BioAssay AID328 (DTP/NCI, 2004).

Toxic doses and inconclusive results are not listed.

This test concerns BDF1 mice, P388 leukemia ip, median survival T/C. The test is described as follows: NCI In Vivo Anticancer Drug Screen. Data for tumor model P388 Leukemia (intraperitoneal) in B6D2F1 (BDF1) mice. Conditions: endpoint: median survival time, higher = longer survival. Summed up: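 Mice carrying the transplantable tumour receive compound or vehicle. Survival is followed in each arm, and the treated measure is divided by the vehicle measure.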

Where [1] appears, read: dose: 50.0 mg/kg/injection, schedule: Q01DX009 (ip), vehicle: saline.
Where [2] appears, read: dose: 100.0 mg/kg/injection, schedule: Q01DX009 (ip), vehicle: saline.

As for `COC(=O)CCCCCC(O)C1CCC2OC(=O)CC21C` (centres undefined), the T/C by setting is: (dose: 100.0 mg/kg/injection, schedule: Q04DX003 (ip), vehicle: saline with Tween-80) 100 % of control; (dose: 200.0 mg/kg/injection, schedule: Q04DX003 (ip), vehicle: saline with Tween-80) 100 % of control; (dose: 400.0 mg/kg/injection, schedule: Q04DX003 (ip), vehicle: saline with Tween-80) 100 % of control.

In the case of `N/C(=N\N=C\c1ccc(-c2ccccc2)cc1)N[N+](=O)[O-]`, the T/C was 100 % of control (dose: 25.0 mg/kg/injection, schedule: Q01DX010 (ip), vehicle: carboxymethylcellulose (CMC)); 100 % of control (dose: 50.0 mg/kg/injection, schedule: Q01DX010 (ip), vehicle: carboxymethylcellulose (CMC)); 100 % of control (dose: 100.0 mg/kg/injection, schedule: Q01DX010 (ip), vehicle: carboxymethylcellulose (CMC)); 100 % of control (dose: 200.0 mg/kg/injection, schedule: Q01DX010 (ip), vehicle: carboxymethylcellulose (CMC)).

On to `CC(=O)CC(=O)C(F)(F)F.CC(=O)CC(=O)C(F)(F)F.[O]=[V]`, for which the T/C is 106 % of control (dose: 3.8 mg/kg/injection, schedule: Q01DX009 (ip), vehicle: Klucel (hydroxypropylcellulose) (HPC)) and 91 % of control (dose: 7.5 mg/kg/injection, schedule: Q01DX009 (ip), vehicle: Klucel (hydroxypropylcellulose) (HPC)).

As to `COC(=O)C12OCC34C(CC5C(C)=C(O)C(=O)CC5(C)C3C(O)C1O)OC(=O)C(OC(=O)/C=C(\C)C(C)(C)O)C24` (centres undefined), the T/C reads like this: (dose: 0.2 mg/kg/injection, schedule: Q01DX009 (ip), vehicle: saline) 165 % of control; (dose: 0.4 mg/kg/injection, schedule: Q01DX009 (ip), vehicle: saline) 165 % of control; (dose: 0.8 mg/kg/injection, schedule: Q01DX009 (ip), vehicle: saline) 163 % of control; (dose: 60.0 micrograms/kg/injection, schedule: Q01DX009 (ip), vehicle: saline + alcohol) 183 % of control; (dose: 120.0 micrograms/kg/injection, schedule: Q01DX009 (ip), vehicle: saline + alcohol) 183 % of control; (dose: 250.0 micrograms/kg/injection, schedule: Q01DX009 (ip), vehicle: saline + alcohol) 200 % of control. Moreover, the T/C is 211 % of control (dose: 500.0 micrograms/kg/injection, schedule: Q01DX009 (ip), vehicle: saline + alcohol); 238 % of control (dose: 1000.0 micrograms/kg/injection, schedule: Q01DX009 (ip), vehicle: saline + alcohol); 194 % of control (dose: 2000.0 micrograms/kg/injection, schedule: Q01DX009 (ip), vehicle: saline + alcohol).

For the compound `CC=C=C(C)CN`, the T/C reads like this: under setting [1], 96 % of control; under setting [2], 96 % of control; (dose: 200.0 mg/kg/injection, schedule: Q01DX009 (ip), vehicle: saline) 92 % of control.

With `c1ccc(SCN2CCN(CSc3ccccc3)CC2)cc1`, the T/C runs as follows: (dose: 50.0 mg/kg/injection, schedule: Q01DX001 (ip), vehicle: saline) 95 % of control; (dose: 100.0 mg/kg/injection, schedule: Q01DX001 (ip), vehicle: saline) 109 % of control.

Turning to `CCOc1ccc(N2CC(=O)N3CCCC(c4ccccc4)N3C(=O)C2)cc1` (centres undefined), the T/C is, setting by setting: (dose: 50.0 mg/kg/injection, schedule: Q01DX005 (ip), vehicle: saline with Tween-80) 108 % of control; (dose: 100.0 mg/kg/injection, schedule: Q01DX005 (ip), vehicle: saline with Tween-80) 94 % of control; (dose: 200.0 mg/kg/injection, schedule: Q01DX005 (ip), vehicle: saline with Tween-80) 94 % of control.

On to `CCN1CCCC(Nc2cc(C)nc(Nc3nc4cc(Cl)c(Cl)cc4[nH]3)n2)C1` (centres undefined), for which the T/C (dose: 1.56 mg/kg/injection, schedule: Q01DX009 (ip), vehicle: Klucel (hydroxypropylcellulose) (HPC)) was 100 % of control; the T/C (dose: 3.12 mg/kg/injection, schedule: Q01DX009 (ip), vehicle: Klucel (hydroxypropylcellulose) (HPC)) is 90 % of control; the T/C (dose: 6.25 mg/kg/injection, schedule: Q01DX009 (ip), vehicle: Klucel (hydroxypropylcellulose) (HPC)) was 100 % of control.

`C/C(CC(c1ccccc1)N1CCc2ccccc2C1)=N/O` (centres undefined): the T/C was 104 % of control (dose: 100.0 mg/kg/injection, schedule: Q04DX003 (ip), vehicle: saline sonified); 109 % of control (dose: 200.0 mg/kg/injection, schedule: Q04DX003 (ip), vehicle: saline sonified); 90 % of control (dose: 400.0 mg/kg/injection, schedule: Q04DX003 (ip), vehicle: saline sonified).

Regarding `COc1cc2c(c(OC)c1OC)-c1cc3c(cc1[C@@H](OC(C)=O)[C@@H]1COC(=O)[C@H]1C2)OCO3`, the T/C (dose: 1.0 mg/kg/injection, schedule: Q01DX009 (ip), vehicle: saline + alcohol) is 118 % of control; the T/C (dose: 1.3 mg/kg/injection, schedule: Q01DX009 (ip), vehicle: saline) was 100 % of control; the T/C (dose: 1.77 mg/kg/injection, schedule: Q01DX009 (ip), vehicle: saline) was 100 % of control; the T/C (dose: 2.0 mg/kg/injection, schedule: Q01DX009 (ip), vehicle: saline + alcohol) was 118 % of control; the T/C (dose: 2.0 mg/kg/injection, schedule: Q01DX009 (ip), vehicle: saline) is 100 % of control; the T/C (dose: 2.66 mg/kg/injection, schedule: Q01DX009 (ip), vehicle: saline) was 90 % of control. The T/C (dose: 3.0 mg/kg/injection, schedule: Q01DX009 (ip), vehicle: saline) is 104 % of control; the T/C (dose: 4.0 mg/kg/injection, schedule: Q01DX009 (ip), vehicle: saline + alcohol) is 118 % of control; the T/C (dose: 4.0 mg/kg/injection, schedule: Q01DX009 (ip), vehicle: saline) is 90 % of control; the T/C (dose: 6.0 mg/kg/injection, schedule: Q01DX009 (ip), vehicle: saline) was 100 % of control; the T/C (dose: 6.22 mg/kg/injection, schedule: Q01DX009 (ip), vehicle: saline + alcohol) was 116 % of control; the T/C (dose: 8.0 mg/kg/injection, schedule: Q01DX009 (ip), vehicle: saline + alcohol) is 113 % of control. Besides, the T/C is 104 % of control (dose: 8.9 mg/kg/injection, schedule: Q01DX009 (ip), vehicle: saline); 112 % of control (dose: 9.33 mg/kg/injection, schedule: Q01DX009 (ip), vehicle: saline + alcohol); 115 % of control (dose: 12.0 mg/kg/injection, schedule: Q01DX009 (ip), vehicle: saline); 113 % of control (dose: 13.3 mg/kg/injection, schedule: Q01DX009 (ip), vehicle: saline); 120 % of control (dose: 14.0 mg/kg/injection, schedule: Q01DX009 (ip), vehicle: saline + alcohol); 100 % of control (dose: 18.0 mg/kg/injection, schedule: Q01DX009 (ip), vehicle: saline). In addition, the T/C is, setting by setting: (dose: 20.0 mg/kg/injection, schedule: Q01DX009 (ip), vehicle: saline) 109 % of control; (dose: 21.0 mg/kg/injection, schedule: Q01DX009 (ip), vehicle: saline + alcohol) 91 % of control.

Take `CC12CCC3c4ccc(OP(=O)(N5CC5)N5CC5)cc4CCC3C1CCC2O` (centres undefined): the T/C runs as follows: (dose: 12.5 mg/kg/injection, schedule: Q01DX009 (ip), vehicle: saline with Tween-80) 102 % of control; (dose: 25.0 mg/kg/injection, schedule: Q01DX009 (ip), vehicle: saline with Tween-80) 93 % of control; (dose: 50.0 mg/kg/injection, schedule: Q01DX009 (ip), vehicle: saline with Tween-80) 121 % of control; (dose: 100.0 mg/kg/injection, schedule: Q01DX009 (ip), vehicle: saline with Tween-80) 121 % of control.

For `COc1ccc(S(=O)(=O)NCCC#N)cc1NC(C)=O`, the T/C is 100 % of control (dose: 100.0 mg/kg/injection, schedule: Q01DX001 (ip), vehicle: saline sonified); 100 % of control (dose: 200.0 mg/kg/injection, schedule: Q01DX001 (ip), vehicle: saline sonified); 100 % of control (dose: 400.0 mg/kg/injection, schedule: Q01DX001 (ip), vehicle: saline sonified).

Turning to `c1c2c(cc3c1OCO3)CC1CCCN1CC2` (centres undefined), the T/C (dose: 0.5 mg/kg/injection, schedule: Q01DX009 (ip), vehicle: saline with Tween-80) was 108 % of control; the T/C (dose: 1.0 mg/kg/injection, schedule: Q01DX009 (ip), vehicle: saline with Tween-80) is 100 % of control; the T/C (dose: 4.0 mg/kg/injection, schedule: Q01DX009 (ip), vehicle: saline with Tween-80) was 108 % of control; the T/C (dose: 8.0 mg/kg/injection, schedule: Q01DX009 (ip), vehicle: saline with Tween-80) was 108 % of control.

For `Nc1nc2ccccc2nc1N`, the T/C was 100 % of control (dose: 25.0 mg/kg/injection, schedule: Q01DX009 (ip), vehicle: saline); 100 % of control (dose: 25.0 mg/kg/injection, schedule: Q04DX003 (ip), vehicle: saline); 100 % of control under setting [1]; 95 % of control (dose: 50.0 mg/kg/injection, schedule: Q04DX003 (ip), vehicle: saline); 90 % of control under setting [2]; 91 % of control (dose: 100.0 mg/kg/injection, schedule: Q04DX003 (ip), vehicle: saline).
